Source: publication doi:10.1101/2021.06.18.448987v1 (biorxiv, 2021)
Read-outs that look alike come from different tables or passages of the source. Blank lines part the entries; values can stand above or below the molecule they belong to.

Experiments:
flMelGlgC [1] = conditions: read-out: S0.5, no effector, 10 mM MgCl2, MOPS pH 8.0, 37 °C
inMelGlgC [2] = conditions: read-out: S0.5, no effector, 10 mM MgCl2, MOPS pH 8.0, 37 °C
AnaGlgC [3] = target: T1, AnaGlgC (Nostoc sp. PCC 7120 = FACHB-418, UniProt P30521); experiment: coupled spectrophotometric assay; type: biochemical
T1 sequence (P30521 1-429): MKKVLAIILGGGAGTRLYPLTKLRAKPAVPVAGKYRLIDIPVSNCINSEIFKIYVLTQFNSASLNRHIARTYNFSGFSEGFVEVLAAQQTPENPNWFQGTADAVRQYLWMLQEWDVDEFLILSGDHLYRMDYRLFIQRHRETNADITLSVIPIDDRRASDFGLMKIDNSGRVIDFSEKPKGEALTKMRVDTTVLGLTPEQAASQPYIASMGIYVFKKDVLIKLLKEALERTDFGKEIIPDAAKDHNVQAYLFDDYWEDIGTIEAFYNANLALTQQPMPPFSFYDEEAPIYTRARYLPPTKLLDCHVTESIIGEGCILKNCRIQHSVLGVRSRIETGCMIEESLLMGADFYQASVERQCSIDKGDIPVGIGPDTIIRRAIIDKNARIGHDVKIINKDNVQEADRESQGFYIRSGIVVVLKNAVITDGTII

flMelGlgC [4] = experiment: Malachite Green Pi release with inorganic pyrophosphatase, ADP-Glc synthesis; type: biochemical, Candidatus Melainabacteria bacterium GWF2_37_15; conditions: read-out: A0.5; allosteric activator; 10 mM MgCl2; MOPS pH 8.0; 37 °C
AnaGlgC [5] = target: T1, AnaGlgC; experiment: as above; type: biochemical
inMelGlgC [6] = experiment: as above; type: biochemical, Candidatus Melainabacteria bacterium MEL.A1; conditions: read-out: A0.5; allosteric activator; 10 mM MgCl2; MOPS pH 8.0; 37 °C
inMelGlgC [7] = experiment: activity assay, ADP-Glc synthesis; type: biochemical, Candidatus Melainabacteria bacterium MEL.A1; conditions: read-out: I0.5; inhibitor; 10 mM MgCl2; MOPS pH 8.0; 37 °C
flMelGlgC [8] = experiment: activity assay, ADP-Glc synthesis; type: biochemical, Candidatus Melainabacteria bacterium GWF2_37_15; conditions: read-out: I0.5; inhibitor; 10 mM MgCl2; MOPS pH 8.0; 37 °C
AnaGlgC [9] = target: T1, AnaGlgC; experiment: biochemical
purified protein [10] = substrate: Nc1ncnc2c1ncn2[C@@H]1O[C@H](COP(=O)(O)OP(=O)(O)OP(=O)(O)O)[C@@H](O)[C@H]1O; experiment: purified protein; conditions: no effector, saturating Glc-1P, 10 mM MgCl2, MOPS pH 8.0, 37 °C
purified protein [11] = substrate: O=P(O)(O)O[C@H]1O[C@H](CO)[C@@H](O)[C@H](O)[C@H]1O; experiment: purified protein; conditions: no effector, saturating ATP, 10 mM MgCl2, MOPS pH 8.0, 37 °C
[12] = read-out: A0.5, allosteric activator, 10 mM MgCl2, MOPS pH 8.0, 37 °C

Molecule: O=P(O)(O)O[C@H]1O[C@H](CO)[C@@H](O)[C@H](O)[C@H]1O [Glc-1P]
- Km (flMelGlgC [1]; saturating ATP): 2100 ± 200 µM
- Km (inMelGlgC [2]; saturating ATP): 320 ± 30 µM

Molecule: O=P(O)(O)OC[C@H]1OC(O)(CO)[C@@H](O)[C@@H]1O (stereo partly shown) [Fru-6P]
- EC50 (flMelGlgC [4]): 1700 ± 100 µM
- EC50 (AnaGlgC [5]; [12]): 900 ± 100 µM
- EC50 (inMelGlgC [6]): 440 ± 50 µM

Molecule: Nc1ncnc2c1ncn2[C@@H]1O[C@H](COP(=O)(O)OP(=O)(O)O)[C@@H](O)[C@H]1O [ADP]
- IC50 (inMelGlgC [7]): 2300 ± 900 µM
- IC50 (flMelGlgC [8]): 1440 ± 80 µM

Molecule: Nc1ncnc2c1ncn2[C@@H]1O[C@H](COP(=O)(O)OP(=O)(O)OP(=O)(O)O)[C@@H](O)[C@H]1O [ATP]
- Km (flMelGlgC [1]; saturating Glc-1P): 340 ± 50 µM
- Km (inMelGlgC [2]; saturating Glc-1P): 250 ± 10 µM

Molecule: O=C(O)[C@H](O)COP(=O)(O)O [3-PGA]
- EC50 (AnaGlgC [9]): 190 ± 90 µM
- EC50 (AnaGlgC [5]): 200 µM

B1: AnaGlgC (Nostoc sp. PCC 7120 = FACHB-418) (protein)
chain: MKKVLAIILGGGAGTRLYPLTKLRAKPAVPVAGKYRLIDIPVSNCINSEIFKIYVLTQFNSASLNRHIARTYNFSGFSEGFVEVLAAQQTPENPNWFQGTADAVRQYLWMLQEWDVDEFLILSGDHLYRMDYRLFIQRHRETNADITLSVIPIDDRRASDFGLMKIDNSGRVIDFSEKPKGEALTKMRVDTTVLGLTPEQAASQPYIASMGIYVFKKDVLIKLLKEALERTDFGKEIIPDAAKDHNVQAYLFDDYWEDIGTIEAFYNANLALTQQPMPPFSFYDEEAPIYTRARYLPPTKLLDCHVTESIIGEGCILKNCRIQHSVLGVRSRIETGCMIEESLLMGADFYQASVERQCSIDKGDIPVGIGPDTIIRRAIIDKNARIGHDVKIINKDNVQEADRESQGFYIRSGIVVVLKNAVITDGTII
- K0.5 (purified protein [10]): 0.40 ± 0.04 mM
- K0.5 (purified protein [11]): 0.08 ± 0.02 mM

Results, then the molecule that gave them:

- IC50 (AnaGlgC [3]): 90 µM
Molecule: O=P(O)(O)O [Pi]

- EC50 (flMelGlgC [4]): ~300 µM
- EC50 (AnaGlgC [5]; [12]): 1450 ± 160 µM
- EC50 (inMelGlgC [6]): ~300 µM
Molecule: O=P(O)(O)OC[C@H]1OC(O)[C@H](O)[C@@H](O)[C@@H]1O (stereo partly shown) [Glc-6P]

- EC50 (flMelGlgC [4]): 450 ± 40 µM
- EC50 (inMelGlgC [6]): 520 ± 20 µM
Molecule: O=P(O)(O)OC[C@H]1OC(O)[C@@H](O)[C@@H](O)[C@@H]1O (stereo partly shown) [Man-6P]
